Results as given in ChEMBL document CHEMBL1201862, “PubChem BioAssay data set” (2004).
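How tested: cells in 96-well plates exposed to compound for 48 hours at five concentrations. Abbreviation: GI50, concentration required for 50% inhibition of growth.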 Active and inactive are the calls of the source. Rule as the data show it: active = GI50 up to about 1.1 µM and inactive = higher.

Tests used:
Experiment in all cases: growth of human tumour cells (NCI), 48 h
LOX IMVI = test system: LOX IMVI
A549 = test system: A549
OVCAR-8 = test system: OVCAR-8
OVCAR-5 = test system: OVCAR-5
OVCAR-4 = test system: OVCAR-4
NCI-H460 = test system: NCI-H460
SK-MEL-28 = test system: SK-MEL-28
SR = test system: SR
COLO 205 = test system: COLO 205
PC-3 = test system: PC-3
EKVX = test system: EKVX
NCI/ADR-RES = test system: NCI/ADR-RES
CCRF-CEM = test system: CCRF-CEM
SNB-75 = test system: SNB-75
786-0 = test system: 786-0
SF-295 = test system: SF-295
KM12 = test system: KM12
RXF 393 = test system: RXF 393
MDA-MB-231 = test system: MDA-MB-231
HCT-15 = test system: HCT-15

SMILES	GI50 (LOX IMVI)	GI50 (A549)	GI50 (OVCAR-8)	GI50 (OVCAR-5)	GI50 (OVCAR-4)	GI50 (NCI-H460)	GI50 (SK-MEL-28)	GI50 (SR)	GI50 (COLO 205)	GI50 (PC-3)	GI50 (EKVX)	GI50 (NCI/ADR-RES)	GI50 (CCRF-CEM)	GI50 (SNB-75)	GI50 (786-0)	GI50 (SF-295)	GI50 (KM12)	GI50 (RXF 393)	GI50 (MDA-MB-231)	GI50 (HCT-15) [µM]
c1ccc(C[n+]2cccc(-c3cc4ccccc4[nH]3)c2)cc1	19.1 µM (inactive)	91.2 µM (inactive)	38.3 µM (inactive)	42.7 µM (inactive)	40.2 µM (inactive)	25.3 µM (inactive)	16.4 µM (inactive)	32.1 µM (inactive)	15 µM (inactive)	39.2 µM (inactive)	42.8 µM (inactive)	> 100 µM (inactive)	19.9 µM (inactive)	29.4 µM (inactive)	50.1 µM (inactive)	77.8 µM (inactive)	16.6 µM (inactive)	> 100 µM (inactive)	37.2 µM (inactive)	> 100
CC[C@@]1(O)C(=O)OCc2c1cc1n(c2=O)Cc2cc3cc4c(cc3nc2-1)OCO4	0.00135 µM (active)	0.00144 µM (active)	0.00189 µM (active)	0.0111 µM (active)	0.0507 µM (active)	< 0.001 µM (active)	0.0188 µM (active)	< 0.001 µM (active)	0.0439 µM (active)	0.00746 µM (active)	0.0881 µM (active)	0.00175 µM (active)	< 0.001 µM (active)	0.00148 µM (active)	< 0.001 µM (active)	< 0.001 µM (active)	–	0.00221 µM (active)	0.357 µM (active)	0.0181
Cc1ccc(/C=N/NS(=O)(=O)c2ccc(/C=C3\NC(=O)NC3=O)cc2)cc1	> 100 µM (inactive)	> 100 µM (inactive)	37.8 µM (inactive)	35.9 µM (inactive)	> 100 µM (inactive)	> 100 µM (inactive)	> 100 µM (inactive)	31.6 µM (inactive)	> 100 µM (inactive)	> 100 µM (inactive)	64.9 µM (inactive)	75.7 µM (inactive)	> 100 µM (inactive)	18.2 µM (inactive)	61.1 µM (inactive)	46.7 µM (inactive)	> 100 µM (inactive)	> 100 µM (inactive)	37.1 µM (inactive)	> 100
Cc1ccc(-n2cc(-c3ccc(Cl)cc3)c3c2N=CN2N=C(c4cccs4)NC32)cc1 (stereo not given)	15.7 µM (inactive)	21.9 µM (inactive)	6.46 µM (inactive)	11.1 µM (inactive)	2.21 µM (inactive)	5.31 µM (inactive)	> 100 µM (inactive)	7.64 µM (inactive)	6.71 µM (inactive)	16.5 µM (inactive)	18.1 µM (inactive)	9.68 µM (inactive)	11.2 µM (inactive)	8.38 µM (inactive)	4.28 µM (inactive)	9.18 µM (inactive)	–	12.4 µM (inactive)	4.52 µM (inactive)	51.8
CN(C)c1ccc(-c2c(C#N)c(S)n(NS(=O)(=O)c3ccccc3)c(=O)c2C#N)cc1	22.1 µM (inactive)	37.9 µM (inactive)	16.6 µM (inactive)	55.6 µM (inactive)	25.6 µM (inactive)	–	36.1 µM (inactive)	10 µM (inactive)	38.5 µM (inactive)	21.1 µM (inactive)	32.6 µM (inactive)	19.3 µM (inactive)	5.93 µM (inactive)	25.4 µM (inactive)	17.1 µM (inactive)	31 µM (inactive)	16.2 µM (inactive)	20.4 µM (inactive)	22.3 µM (inactive)	20.5
O=c1c2ccccc2nc(N/N=C/c2ccc(Cl)cc2)n1-c1ccccc1	> 100 µM (inactive)	> 100 µM (inactive)	77.1 µM (inactive)	> 100 µM (inactive)	21.1 µM (inactive)	75 µM (inactive)	> 100 µM (inactive)	> 100 µM (inactive)	> 100 µM (inactive)	49.5 µM (inactive)	> 100 µM (inactive)	> 100 µM (inactive)	> 100 µM (inactive)	0.0269 µM (active)	> 100 µM (inactive)	> 100 µM (inactive)	–	87.1 µM (inactive)	93.3 µM (inactive)	89.9
Cc1ccc(C(=O)Nc2ccc(CP(=O)(O)O)cc2CP(=O)(O)O)cc1N	> 100 µM (inactive)	> 100 µM (inactive)	> 100 µM (inactive)	> 100 µM (inactive)	> 100 µM (inactive)	–	> 100 µM (inactive)	> 100 µM (inactive)	> 100 µM (inactive)	> 100 µM (inactive)	> 100 µM (inactive)	> 100 µM (inactive)	> 100 µM (inactive)	> 100 µM (inactive)	> 100 µM (inactive)	> 100 µM (inactive)	> 100 µM (inactive)	> 100 µM (inactive)	> 100 µM (inactive)	> 100
CCN(CC)CCOc1ccc(N2Cc3ccccc3C2=O)cc1	> 10 µM (inactive)	> 10 µM (inactive)	> 10 µM (inactive)	> 10 µM (inactive)	> 10 µM (inactive)	7.28 µM (inactive)	> 10 µM (inactive)	> 10 µM (inactive)	> 10 µM (inactive)	> 10 µM (inactive)	> 10 µM (inactive)	> 10 µM (inactive)	> 10 µM (inactive)	> 10 µM (inactive)	> 10 µM (inactive)	> 10 µM (inactive)	–	> 10 µM (inactive)	> 10 µM (inactive)	> 10
COCCc1c(C)c(C#N)c2n(C)c3ccccc3n2c1=O	> 10 µM (inactive)	> 10 µM (inactive)	> 10 µM (inactive)	> 10 µM (inactive)	> 10 µM (inactive)	> 10 µM (inactive)	> 10 µM (inactive)	> 10 µM (inactive)	> 10 µM (inactive)	> 10 µM (inactive)	> 10 µM (inactive)	> 10 µM (inactive)	–	> 10 µM (inactive)	> 10 µM (inactive)	> 10 µM (inactive)	> 10 µM (inactive)	> 10 µM (inactive)	> 10 µM (inactive)	> 10
O=C1NC(N2CCCC(CO)C2)=N/C1=C\c1ccc(Cl)cc1 (stereo not given)	87.5 µM (inactive)	> 100 µM (inactive)	> 100 µM (inactive)	> 100 µM (inactive)	> 100 µM (inactive)	–	> 100 µM (inactive)	> 100 µM (inactive)	> 100 µM (inactive)	> 100 µM (inactive)	49.1 µM (inactive)	> 100 µM (inactive)	> 100 µM (inactive)	51.1 µM (inactive)	> 100 µM (inactive)	> 100 µM (inactive)	63.7 µM (inactive)	> 100 µM (inactive)	> 100 µM (inactive)	77.6
O=C1NC(c2ccc3ccccc3c2)Nc2ccccc21 (stereo not given)	58.7 µM (inactive)	–	33.4 µM (inactive)	–	58.5 µM (inactive)	25.3 µM (inactive)	> 100 µM (inactive)	5.83 µM (inactive)	26.3 µM (inactive)	27.9 µM (inactive)	45.6 µM (inactive)	62.4 µM (inactive)	30.6 µM (inactive)	75.7 µM (inactive)	45.7 µM (inactive)	35.3 µM (inactive)	21.1 µM (inactive)	51.9 µM (inactive)	> 100 µM (inactive)	14.8
